Where “and” joins values, the source holds several entries; their conditions need not be identical. Equal entries are not always repeated.
Key:
[1] = Determination of absorbance maximum and molar extinction coefficient (ε) in KMOPS buffer; format: physicochemical; settings: for ε (molar extinction coefficient): at λmax
Experimental: Determination of the Molar Extinction Coefficient (ε).
(§1) A weighed portion of BHQ-O-5HT was dissolved in methanol. A measured aliquot of this solution was withdrawn and placed in KMOPS buffer (3.0 mL) and mixed thoroughly to generate a 100-μM solution of BHQ-O-5HT. The absorbance A of this solution at τmax=368 nm was measured. This method was repeated twice with different masses of BHQ-O-5HT.
Determination of the Molar Extinction Coefficient (s).
as §1, with “BHQ-VAA” for “BHQ-O-5HT”, “BHQ-VAA.” for “BHQ-O-5HT.”, “λmax=368” for “τmax=368”

[2] = Determination of the uncaging quantum efficiency (Qu), 1-photon photolysis at 365 nm; format: physicochemical; settings: for Qu (uncaging quantum efficiency): 365±15 nm, KMOPS
Experimental: Determination of the Uncaging Quantum Efficiency (Qu).
(§2) The quantum efficiency was calculated using the equation Qu=(Iσt90%)^−1, where I is the irradiation intensity in einstein·cm^−2, σ is the decadic extinction coefficient (1,000 times ε) and t90% is the time in seconds required for the conversion of 90% of the starting material to product. To find t90%, a solution of BHQ-O-5HT in KMOPS was prepared and placed in a cuvette along with a small stir bar. While stirring, the solution was irradiated with UV light from a mercury lamp (Spectroline SB-100P, Spectronics Corporation) equipped with two glass filters (CS0-52, CS7-60, Ace Glass) so that the wavelength was restricted to 365±15 nm. Periodically, 20-μL aliquots were removed and analyzed by HPLC. The time points collected were as follows: 0, 5, 10, 20, 30, 60, 90, and 120 s. Percent BHQ-O-5HT remaining was plotted verses time of photolysis. A simple single exponential decay curve provided the best fit for the data and was used to extrapolate t90%. The lamp's UV intensity I was measured using potassium ferrioxalate actinometry. Initially, 6 mM potassium ferrioxalate solution (3 mL) was irradiated with the mercury lamp for 60 s. A portion of this solution (2 mL) was combined with aqueous buffer (3 mL), 0.1% phenanthroline solution (3 mL), and 2M KF solution (1 mL) in a 25-mL volumetric flask. Deionized water was added to generate a 25 mL solution. A blank solution was also prepared using the same method, but the potassium ferrioxalate used in the blank was not irradiated. Both solutions were allowed to sit for one hour and the blank was then used as a baseline against which the absorbance of the irradiated solution was measured at 510 nm. The following equation was used to calculate lamp intensity: […]
where V3 is the volume of dilution (25 mL), V2 is the volume of irradiated potassium ferrioxalate solution taken for analysis (2 mL), ΔD510 is the absorption of the solution at 510 nm, Σ510 is the actinometry extinction coefficient (1.11×10^4 M^−1 cm^−1),)Fe is the quantum yield for production of ferrous ions from potassium ferrioxalate at 365 nm, and t represents the time of irradiation. The ΔD510 value used for calculations is the average of two measurements taken before and after irradiation of BHQ-O-5HT. Compilation of the measurements yielded an uncaging quantum efficiency Qu, of 0.30. The experiment was repeated for BHQ-N-5HT, and compilation of the measurements yielded an uncaging quantum efficiency Qu of 0.10.
as §2, with “c)” for “ε)”, “BHQ-VAA” for “BHQ-O-5HT”, “irradiated.” for “irradiated. Both solutions were allowed to sit for one hour and the blank was then used as a baseline against which the absorbance of the irradiated solution was measured at 510 nm. The following equation was used to calculate lamp intensity:”

[3] = Determination of two-photon action cross-sections (δu) at 740 nm; format: physicochemical
Experimental: Determination of Two-photon Action Cross-Sections (δu).
A portion of BHQ-O-5HT was dissolved in KMOPS buffer and the concentration of the solution was found using UV-Vis absorption in conjunction with Beer's law. Aliquots (25 μL) of this solution were placed in a microcuvette (10×1×1 mm illuminated dimensions) and irradiated with a fs-pulsed and mode-locked Ti:Sapphire laser (Chameleon Ultra II, Coherent) with 740-nm light at an average power of 300 mW. Three samples were irradiated for each of the following time periods: 0, 5, 10, 20, and 40 min. The samples were compiled and analyzed by HPLC. A solution of fluorescein at pH 9.0 was prepared to act as a standard for BHQ-O-5HT because of its well-characterized 2PE cross-section (δaF=30 GM at 740 nm) and quantum yield (QF2=0.9). UV-V is absorption spectroscopy was used to correlate absorption at 488 nm to precise concentration. Aliquots (25 μL) of fluorescein solution were placed in the microcuvette and irradiated by the laser under the same conditions used for the BHQ-O-5HT solution. The fluorescence output of the solution was measured with a radiometer before and after the BHQ-O-5HT samples were irradiated and the two values were averaged. The following equation was used to calculate the two-photon action cross-section for BHQ-O-5HT:
where Np is the number of product molecules formed per second (determined by HPLC), φ is the collection efficiency of the detector (SED033 on an IL-1700, International Light) used to measure the fluorescence of fluorescein passing through the cuvette window and through a 535/545 nm bandpass filter at a right angle to the laser's beam, CF is the concentration of fluorescein, <F(t)> is the time averaged fluorescent photon flux (photons/s) of fluorescein and CS is the initial concentration of the caged compound. The measurements were compiled and the two-photon action cross-section for BHQ-O-5HT was determined to be 0.50 GM. The experiment was repeated for BHQ-N-5HT, and the two-photon action cross-section was determined to be 0.42 GM.
Determination of Two photon Action Cross-Sections (δu).
A portion of BHQ-VAA was dissolved in KMOPS buffer and the concentration of the solution was found using UV-Vis absorption in conjunction with Beer's law. Aliquots (25 μL) of this solution were placed in a microcuvette (10×1×1 mm illuminated dimensions) and irradiated with a fs-pulsed and mode-locked Ti: Sapphire laser (Chameleon Ultra II, Coherent) with 740-nm light at an average power of 300 mW. Three samples were irradiated for each of the following time periods: 0, 5, 10, 20, and 40 min. The samples were compiled and analyzed by HPLC. […] The fluorescence output of the solution was measured with a radiometer before and after the BHQ-VAA samples were irradiated and the two values were averaged. […]

[4] = Determination of the dark hydrolysis rate (τdark) in KMOPS; format: physicochemical; settings: for τdark (time constant for dark hydrolysis): 100 μM in KMOPS, stored in the dark
Experimental: Determination of the Dark Hydrolysis Rate (τdark).
(§3) Three 100-μM solutions of BHQ-O-5HT in KMOPS were created and stored in the dark. Aliquots (20 μL) were removed periodically from each solution and analyzed by HPLC. The percents remaining for each time point for each solution were averaged and plotted versus time. A simple single exponential decay curve provided the best fit. The time constant for dark hydrolysis (τdark) was determined to be 260 h. The experiment was repeated for BHQ-N-5HT, and the time constant for dark hydrolysis (τdark) was determined to be 300 h.
as §3, with “BHQ-VAA” for “BHQ-O-5HT”, “140” for “260”, “h.” for “h. The experiment was repeated for BHQ-N-5HT, and the time constant for dark hydrolysis (τdark) was determined to be 300 h.”

[5] = tested on: ex vivo zebrafish brain (optic tectum); experiment: Electrophysiological recording of PTZ-induced seizure activity in ex vivo zebrafish brain; settings: PTZ 15 mM-induced seizure
Experimental: BHQ-O-5HT Mediates the Light Activation of 5HT in an Ex Vivo Zebrafish Brain Preparation (FIG. 1.1).
A microelectrode inserted into the optic tectum was used to record seizure activity induced by application of pentalenetetrazole (PTZ, 15 mM). The ictal and interictal spikes can be observed at regular intervals. After 1040 s, BHQ-O-5HT (1 mM) was added. No change in the amplitude of the ictal spikes was observed. At 1640 s, the preparation was exposed to a brief (˜1 ms) flash of 365-nm light. […] Since 5HT is an inhibitor of seizures,^1,2 this is the expected result.
Procedure for electrophysiological recording in ex vivo zebrafish brain:
An adult zebrafish brain was obtained by dissection in oxygenated artificial cerebrospinal fluid (ACSF).* A sharp glass pipet microelectrode (15 MΩ impedance), loaded with ACSF, was inserted into the optic tectum. A chloride-coated silver wire (0.010 in., A-M Systems, Inc. Sequim, Wash.) reference (15 MΩ impedance) was placed contra-laterally, adjacent to the brain. Neuronal activity was recorded using an MDA-41 AC Differential Amplifier (Bak Electronics, Mount Airy, Md.) and a Tektronix DPO 3012 Digital Phosphor Oscilloscope (Beaverton, Oreg.) using MATLAB. Baseline activity was recorded for 5 min followed by introduction of PTZ (15 mM). […] The response was recorded for 30 min.

[6] = tested on: cultured dorsal root ganglia (DRG) cells; format: cell-based, mouse
[7] = Table 1.1, KMOPS buffer, 100 μM
[8] = BHQ-OPh, previous unpublished work (Zhu & Dore)
[9] = Table 2.1, KMOPS buffer, 100 μM

Compound: O=C(NCCc1c[nH]c2ccc(O)cc12)OCc1ccc2ccc(O)c(Br)c2n1 [BHQ-N-5HT]
- λmax [1, 7]: 370 nm
- ε (molar extinction coefficient) [1, 7]: 2,100 M^−1 cm^−1
- Sensitivity Qu × ε ([2]; Table 1.1): 210 M⁻¹ cm⁻¹
- Qu (uncaging quantum efficiency) ([2]; Table 1.1): 0.10
- δu (two-photon uncaging action cross-section) ([3]; Table 1.1, KMOPS): 0.42 GM
- τdark (time constant for dark hydrolysis) ([4]; Table 1.1): 300 h

Compound: NCCc1c[nH]c2ccc(OCc3ccc4ccc(O)c(Br)c4n3)cc12 [BHQ-O-5HT]
- λmax [1, 7]: 368 nm
- ε (molar extinction coefficient) [1, 7]: 2,000 M^−1 cm^−1
- Sensitivity Qu × ε ([2]; Table 1.1): 600 M⁻¹ cm⁻¹
- Qu (uncaging quantum efficiency) ([2]; Table 1.1): 0.30
- δu (two-photon uncaging action cross-section) ([3]; Table 1.1, KMOPS): 0.50 GM
- τdark (time constant for dark hydrolysis) ([4]; Table 1.1): 260 h
- change in amplitude of ictal spikes, before light ([5]; compound 1 mM added, no irradiation): No change
- change in amplitude of ictal spikes, after light flash ([5]; compound 1 mM, brief (~1 ms) flash of 365-nm light): immediate reduction in the amplitude of the ictal spikes

Compound: Oc1ccc2ccc(COc3ccccc3)nc2c1Br [BHQ-OPh]
- ε [1, 8]: 3200 M⁻¹ cm⁻¹
- λmax [1, 8]: 369
- quantum efficiency Qu ([2]; 1-photon photolysis at 365 nm, pH 7.2 KMOPS): 0.19
- 2-photon photolysis uncaging action cross section δu ([3]; pH 7.2 KMOPS): 0.56 GM
- time constant for hydrolysis in the dark τdark ([4]; simulated physiological conditions, dark): 95 h

Compound: CCCCCCCCC(=O)NCc1ccc(OCc2ccc3ccc(O)c(Br)c3n2)c(OC)c1 [BHQ-VNA]
- electrophysiological response after light pulse [6]: immediate potential change is observed that is indistinguishable from the VNA trace
- electrophysiological response, bath applied, without light [6]: does not have any affect

Compound: COc1cc(CNC(C)=O)ccc1OCc1ccc2ccc(O)c(Br)c2n1 [BHQ-VAA]
- λmax [1, 9]: 368 nm and 370 nm
- ε (molar extinction coefficient) [1, 9]: 2700 M⁻¹ cm⁻¹
- Sensitivity Qu × ε ([2]; Table 2.1): 486 M⁻¹ cm⁻¹
- Qu (uncaging quantum efficiency) ([2]; Table 2.1): 0.18
- δu (two-photon uncaging action cross-section) ([3]; Table 2.1, KMOPS): 0.61 GM
- τdark (time constant for dark hydrolysis) ([4]; Table 2.1): 140 h

Compound: CCCCCCCCC(=O)NCc1ccc(O)c(OC)c1 [VNA, N-vanillyl nonanamide, reference compound]
- electrophysiological response (extracellular potential) on topical application ([6]; single DRG neuron, via TRPV1 channels): strong and immediate electrophysiological response
